Source: patent US20240423207A1, “PICOLINAMIDE COMPOUNDS WITH FUNGICIDAL ACTIVITY” (CORTEVA AGRISCIENCE LLC, priority 2014, published 2024)
Like-named read-outs stand apart in the source and are kept apart here. Each block holds one compound with its values, some of them ahead of it.

How the values were obtained:
[1] = test system: Mycosphaerella graminicola; Anamorph: Septoria tritici; assay: Leaf Blotch of Wheat (SEPTTR) fungicidal activity on wheat seedlings; assay type: in vivo; details: Zymoseptoria tritici; for pest or weed control at 121.5 g/ha: Low Volume, 121.5 g/H; for pest or weed control at 100 ppm: High Volume
In short: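 Compounds in acetone were diluted with nine volumes of water containing 110 ppm Triton X-100, or as EC formulations with 0.1% Trycol 5941 for track spray. They were sprayed on first-leaf Yuma wheat seedlings inoculated with S. tritici before or after treatment. Plants spent 1 day dark and 2–3 days lit at 100% RH, 20 °C. Severity (0–100%) was scored once untreated plants were fully diseased; control was computed relative to untreated plants.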

[2] = test system: Puccinia triticina; Synonym: Puccinia recondita f sp. tritici; assay: Wheat Brown Rust (PUCCRT) fungicidal activity on wheat seedlings; assay type: in vivo; details: for pest or weed control at 100 ppm: High Volume; for pest or weed control at 121.5 g/ha: Low Volume, 121.5 g/H
In short: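 Yuma wheat seedlings (first leaf emerged) were sprayed to run-off with compound in acetone/water 1:9 (110 ppm Triton X-100), and P. triticina spores were inoculated before or after treatment. Plants were kept overnight in a 22 °C dark dew room at 100% RH, then moved to a 24 °C greenhouse; % control was based on first-leaf severity (0–100%) versus untreated plants.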

[3] = 24 h, 1 Day Protectant, read-out: SEPTTR 1DP disease control
[4] = 72 h, 3 Day Curative, read-out: SEPTTR 3DC disease control
[5] = 24 h, 1 Day Protectant, read-out: PUCCRT 1DP disease control
[6] = 72 h, 3 Day Curative, read-out: PUCCRT 3DC disease control

melting point: 52 to 65 °C
Compound: COc1ccnc(C(=O)N[C@@H](C)C(=O)O[C@@H](C)C(c2ccc(F)cc2)c2ccc(F)cc2)c1OC(=O)C(C)(C)C [Cmpd 207]
pest or weed control at 121.5 g/ha [1, 3]: > 80%
pest or weed control at 121.5 g/ha [1, 4]: > 80%

Compound: COc1ccnc(C(=O)N[C@@H](C)C(=O)O[C@@H](C)C(c2ccc(Cl)cc2)c2ccc(Cl)cc2)c1O [Cmpd 107]
pest or weed control at 100 ppm [1, 3]: > 80%
pest or weed control at 100 ppm [1, 4]: > 80%
pest or weed control at 100 ppm [2, 5]: > 80%
pest or weed control at 100 ppm [2, 6]: < 80%

Compound: C#Cc1ccc(C(c2ccc(C#C)cc2)[C@H](C)OC(=O)[C@H](C)NC(=O)c2nccc(OC)c2O)cc1 [Cmpd 123]
pest or weed control at 100 ppm [1, 3]: < 80%
pest or weed control at 100 ppm [1, 4]: > 80%
pest or weed control at 100 ppm [2, 5]: < 80%

Compound: COc1ccccc1C(c1ccccc1OC)[C@H](C)OC(=O)[C@H](C)NC(=O)c1nccc(OC)c1OCOC(C)=O [Cmpd 191]
pest or weed control at 121.5 g/ha [1, 3]: > 80%
pest or weed control at 121.5 g/ha [1, 4]: > 80%
pest or weed control at 121.5 g/ha [2, 5]: > 80%
pest or weed control at 121.5 g/ha [2, 6]: > 80%

Compound: COc1ccnc(C(=O)N[C@@H](C)C(=O)O[C@@H](C)C(c2ccc(F)c(C)c2)c2ccc(F)c(C)c2)c1OC(C)=O [Cmpd 217]
pest or weed control at 121.5 g/ha [1, 3]: > 80%
pest or weed control at 121.5 g/ha [1, 4]: > 80%
pest or weed control at 121.5 g/ha [2, 5]: > 80%
pest or weed control at 121.5 g/ha [2, 6]: < 80%

Compound: COc1ccnc(C(=O)N[C@@H](C)C(=O)O[C@@H](C)C(c2ccc(F)cc2F)c2ccc(F)cc2F)c1O [Cmpd 96]
pest or weed control at 100 ppm [1, 3]: > 80%
pest or weed control at 100 ppm [1, 4]: > 80%
pest or weed control at 100 ppm [2, 5]: > 80%
pest or weed control at 100 ppm [2, 6]: > 80%

Compound: COc1ccnc(C(=O)N[C@@H](C)C(=O)O[C@@H](C)C(c2cccc(F)c2)c2cccc(F)c2)c1OCOC(C)=O [Cmpd 159]
pest or weed control at 121.5 g/ha [1, 3]: > 80%
pest or weed control at 121.5 g/ha [1, 4]: > 80%
pest or weed control at 121.5 g/ha [2, 5]: > 80%
pest or weed control at 121.5 g/ha [2, 6]: > 80%

Compound: COc1ccnc(C(=O)N[C@@H](C)C(=O)O[C@@H](C)C(OC)(c2ccccc2)c2ccccc2)c1OCOC(C)=O [Cmpd 149]
pest or weed control at 121.5 g/ha [1, 3]: > 80%
pest or weed control at 121.5 g/ha [1, 4]: > 80%
pest or weed control at 121.5 g/ha [2, 5]: < 80%
pest or weed control at 121.5 g/ha [2, 6]: < 80%

Compound: COc1ccnc(C(=O)N[C@@H](C)C(=O)O[C@@H](C)C(c2ccc(F)cc2)c2ccc(F)cc2)c1OC(=O)C(C)C [Cmpd 208]
pest or weed control at 121.5 g/ha [1, 3]: > 80%
pest or weed control at 121.5 g/ha [1, 4]: > 80%
pest or weed control at 121.5 g/ha [2, 5]: > 80%
pest or weed control at 121.5 g/ha [2, 6]: < 80%

Compound: CCc1ccc(C(c2ccc(CC)cc2)[C@H](C)OC(=O)[C@H](C)NC(=O)c2nccc(OC)c2O)cc1 [Cmpd 124]
pest or weed control at 100 ppm [1, 3]: > 80%
pest or weed control at 100 ppm [1, 4]: > 80%
pest or weed control at 100 ppm [2, 5]: > 80%
pest or weed control at 100 ppm [2, 6]: > 80%

Compound: COc1ccnc(C(=O)NCC(=O)O[C@@H](C)C(c2ccc(F)cc2)c2ccc(F)cc2)c1O [Cmpd 113]
pest or weed control at 100 ppm [1, 3]: > 80%
pest or weed control at 100 ppm [1, 4]: < 80%
pest or weed control at 100 ppm [2, 5]: > 80%
pest or weed control at 100 ppm [2, 6]: < 80%

Compound: COCCC(=O)Oc1c(OC)ccnc1C(=O)N[C@@H](C)C(=O)O[C@@H](C)C(c1ccc(F)cc1)c1ccc(F)cc1 [Cmpd 209]
pest or weed control at 121.5 g/ha [1, 3]: > 80%
pest or weed control at 121.5 g/ha [1, 4]: > 80%
pest or weed control at 121.5 g/ha [2, 5]: > 80%
pest or weed control at 121.5 g/ha [2, 6]: < 80%

Compound: COc1ccnc(C(=O)N[C@@H](C)C(=O)O[C@@H](C)[C@@H](c2ccccc2)c2ccc(C(F)(F)F)cc2)c1O [Cmpd 106]
pest or weed control at 100 ppm [1, 3]: > 80%
pest or weed control at 100 ppm [1, 4]: > 80%
pest or weed control at 100 ppm [2, 5]: > 80%

Compound: CCOc1ccnc(C(=O)N[C@@H](C)C(=O)O[C@@H](C)C(c2ccc(F)cc2)c2ccc(F)cc2)c1O [Cmpd 111]
pest or weed control at 100 ppm [1, 3]: < 80%
pest or weed control at 100 ppm [1, 4]: > 80%
pest or weed control at 100 ppm [2, 5]: < 80%

Compound: COc1ccnc(C(=O)N[C@@H](C)C(=O)O[C@@H](C)C(c2ccc(-c3ccccc3)cc2)c2ccc(-c3ccccc3)cc2)c1O [Cmpd 109]
pest or weed control at 100 ppm [1, 4]: < 80%
pest or weed control at 100 ppm [2, 5]: < 80%

Compound: COc1ccnc(C(=O)N[C@@H](C)C(=O)O[C@@H](C)C(O)(c2ccccc2)c2ccccc2)c1OCOC(C)=O [Cmpd 138]
pest or weed control at 121.5 g/ha [1, 3]: > 80%
pest or weed control at 121.5 g/ha [1, 4]: < 80%
pest or weed control at 121.5 g/ha [2, 6]: < 80%

Compound: COc1ccnc(C(=O)N[C@@H](C)C(=O)O[C@@H](C)C(c2cccc(F)c2)c2cccc(F)c2)c1O [Cmpd 99]
pest or weed control at 100 ppm [1, 3]: > 80%
pest or weed control at 100 ppm [1, 4]: > 80%
pest or weed control at 100 ppm [2, 5]: > 80%
pest or weed control at 100 ppm [2, 6]: < 80%

Compound: CC[C@H](NC(=O)c1nccc(OC)c1OC(C)=O)C(=O)O[C@@H](C)C(c1ccc(F)cc1)c1ccc(F)cc1 [Cmpd 188]
pest or weed control at 121.5 g/ha [1, 3]: > 80%
pest or weed control at 121.5 g/ha [1, 4]: > 80%
pest or weed control at 121.5 g/ha [2, 5]: > 80%
pest or weed control at 121.5 g/ha [2, 6]: < 80%
